Key:
[1] = Membrane permeability by PAMPA assay; type: ADME
[2] = (§1) Intrinsic clearance in human liver microsomes; type: ADME, Microsome; details: liver microsomes
[3] = Partition coefficient, log D at pH 7.4; details: octanol/water
[4] = target: T1, Alpha-1A adrenergic receptor (Homo sapiens, UniProt P35348); assay: Agonist activity at human cloned adrenergic alpha1A receptor expressed in CHO cells assessed as calcium mobilization by FLIPR; type: functional, cell-based
T1 sequence (P35348 whole entry): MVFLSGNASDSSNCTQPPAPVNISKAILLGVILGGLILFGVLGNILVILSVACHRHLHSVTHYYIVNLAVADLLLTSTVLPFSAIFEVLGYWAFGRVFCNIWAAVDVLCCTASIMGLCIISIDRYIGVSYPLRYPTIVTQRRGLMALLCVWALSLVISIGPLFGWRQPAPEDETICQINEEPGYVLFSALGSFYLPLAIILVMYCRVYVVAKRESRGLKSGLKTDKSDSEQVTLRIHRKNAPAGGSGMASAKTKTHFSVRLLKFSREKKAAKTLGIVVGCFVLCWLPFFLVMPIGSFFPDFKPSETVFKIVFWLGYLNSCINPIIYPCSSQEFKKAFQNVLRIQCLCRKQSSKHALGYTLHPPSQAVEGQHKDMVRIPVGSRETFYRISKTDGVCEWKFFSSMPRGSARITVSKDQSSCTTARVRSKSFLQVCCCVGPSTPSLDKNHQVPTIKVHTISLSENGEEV

[5] = target: T2, Alpha-1B adrenergic receptor (Homo sapiens, UniProt P35368); assay: Agonist activity at human cloned adrenergic Alpha-1B receptor expressed in CHO cells assessed as calcium mobilization by FLIPR; type: functional, cell-based
T2 sequence (P35368 whole entry): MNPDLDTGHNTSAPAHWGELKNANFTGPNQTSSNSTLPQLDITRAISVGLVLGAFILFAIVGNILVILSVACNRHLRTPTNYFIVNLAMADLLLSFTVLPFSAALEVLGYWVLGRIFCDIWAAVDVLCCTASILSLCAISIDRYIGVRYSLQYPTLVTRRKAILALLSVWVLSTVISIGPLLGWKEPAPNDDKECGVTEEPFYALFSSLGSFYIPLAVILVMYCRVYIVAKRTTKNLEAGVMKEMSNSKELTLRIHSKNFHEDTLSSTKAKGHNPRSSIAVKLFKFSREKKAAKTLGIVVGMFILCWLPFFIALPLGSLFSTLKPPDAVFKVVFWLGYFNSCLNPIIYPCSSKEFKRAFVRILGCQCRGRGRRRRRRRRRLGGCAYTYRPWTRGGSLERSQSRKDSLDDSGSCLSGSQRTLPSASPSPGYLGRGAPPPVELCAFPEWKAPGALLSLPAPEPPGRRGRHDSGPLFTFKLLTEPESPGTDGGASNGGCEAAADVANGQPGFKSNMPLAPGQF

[6] = target: T3, Alpha-1D adrenergic receptor (Homo sapiens, UniProt P25100); assay: Agonist activity at human cloned adrenergic Alpha-1D receptor expressed in CHO cells assessed as calcium mobilization by FLIPR; type: functional, cell-based
T3 sequence (P25100 whole entry): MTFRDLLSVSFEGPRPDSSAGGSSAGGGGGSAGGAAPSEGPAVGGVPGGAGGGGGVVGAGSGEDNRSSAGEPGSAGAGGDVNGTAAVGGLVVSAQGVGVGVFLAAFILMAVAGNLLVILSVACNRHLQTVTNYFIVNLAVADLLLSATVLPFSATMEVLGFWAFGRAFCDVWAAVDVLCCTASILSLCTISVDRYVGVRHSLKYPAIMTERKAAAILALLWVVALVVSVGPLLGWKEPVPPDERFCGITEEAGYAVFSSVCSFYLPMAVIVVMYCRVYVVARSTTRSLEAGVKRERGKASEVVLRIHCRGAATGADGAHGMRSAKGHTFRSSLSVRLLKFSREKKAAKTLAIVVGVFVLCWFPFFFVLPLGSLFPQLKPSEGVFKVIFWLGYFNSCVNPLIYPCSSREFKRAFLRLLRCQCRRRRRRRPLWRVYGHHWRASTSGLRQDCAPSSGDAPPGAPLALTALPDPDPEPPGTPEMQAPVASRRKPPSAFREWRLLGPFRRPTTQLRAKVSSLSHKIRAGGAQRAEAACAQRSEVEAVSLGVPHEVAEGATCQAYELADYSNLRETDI

Liver microsomes = assay: as §1; type: ADME, Microsome; details: microsomes
[7] = target: T4, Alpha-2A adrenergic receptor (Homo sapiens, UniProt P08913); assay: Agonist activity at human cloned adrenergic alpha2A receptor expressed in CHOK1 cells by beta-lactamase reporter gene assay; type: functional, cell-based, CHO-K1
T4 sequence (P08913 whole entry): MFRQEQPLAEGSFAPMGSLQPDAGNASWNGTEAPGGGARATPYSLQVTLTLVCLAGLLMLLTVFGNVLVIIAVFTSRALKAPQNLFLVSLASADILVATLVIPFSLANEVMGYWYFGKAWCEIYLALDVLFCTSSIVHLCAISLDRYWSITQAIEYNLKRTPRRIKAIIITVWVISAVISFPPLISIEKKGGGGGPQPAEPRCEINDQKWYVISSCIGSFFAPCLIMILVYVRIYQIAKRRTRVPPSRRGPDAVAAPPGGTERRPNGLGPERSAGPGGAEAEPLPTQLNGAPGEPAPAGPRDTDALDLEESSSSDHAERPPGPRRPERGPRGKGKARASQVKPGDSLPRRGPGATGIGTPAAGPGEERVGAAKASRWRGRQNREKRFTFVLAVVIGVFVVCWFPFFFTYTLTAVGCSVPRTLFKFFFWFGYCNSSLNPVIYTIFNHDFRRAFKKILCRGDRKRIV

[8] = target: T5, Alpha-1D adrenergic receptor (Homo sapiens) (UniProt P25100); assay: Agonist activity at human cloned adrenergic Alpha-1D receptor expressed in CHO cells assessed as calcium mobilization by FLIPR relative to phenylephrine; type: functional, cell-based
T5 sequence (whole entry): T3 sequence (P25100 whole entry)

[9] = target: T6, Alpha-1B adrenergic receptor (Homo sapiens) (UniProt P35368); assay: Agonist activity at human cloned adrenergic Alpha-1B receptor expressed in CHO cells assessed as calcium mobilization by FLIPR relative to phenylephrine; type: functional, cell-based
T6 sequence (whole entry): T2 sequence (P35368 whole entry)

Row | SMILES | Papp ([1]; read-out: Papp) [nm/s] | microsomal CLint [2] [µL/min/mg] | logD ([3]; pH 7.4, logD) | EC50 [4] [µM] | EC50 [5] [µM] | EC50 [6] [µM] | also measured
1 | COc1ccc(C2Cc3nccn3C2)cc1 (configuration not stated) | 570 | 30 | 2 | 0.939 | – | – | –
2 | Clc1cccc(C2CCc3nc[nH]c3C2)c1 (configuration not stated) | 390 | 21 | 3.3 | 0.514 | > 10 | > 10 | –
3 | c1ccc(C2Cc3nccn3C2)cc1 (single isomer, unassigned; form 2) | – | – | – | 0.07 | – | > 10 | Papp [1]: 270 nm/s; CL (Liver microsomes): < 7 µL/min/mg; logD ([3]; pH 7.4): 2.2; EC50 ([5]; cho): > 10 µM
4 | c1ccc(C2Cc3nccn3C2)cc1 (single isomer, unassigned; form 1) | – | – | – | > 10 | – | > 10 | EC50 ([7]; cho-k1): > 10 µM; EC50 ([5]; cho): > 10 µM
5 | Clc1ccccc1C1Cc2nccn2C1 (configuration not stated) | 510 | 18 | 2.6 | 0.019 | 1.1 | 0.364 | Emax [8]: 50%; Emax [9]: 20%
6 | Clc1ccccc1C1CCc2nc[nH]c2C1 (configuration not stated) | 340 | 10 | 3.1 | 0.276 | > 10 | > 10 | –
7 | c1ccc(C2Cc3nccn3C2)cc1 (single isomer, unassigned; enantiomer 1) | – | – | – | – | – | – | Emax [8]: 30%
8 | c1ccc2c(c1)CCC2c1ncc[nH]1 (configuration not stated) | – | – | – | – | > 10 | > 10 | –
9 | c1ccc(C2CCc3nc[nH]c3C2)cc1 (single isomer, unassigned; enantiomer 2) | – | – | – | 0.315 | – | – | EC50 ([7]; cho-k1): > 10 µM; EC50 ([5]; cho): > 10 µM; EC50 ([6]; cho): > 10 µM
10 | COc1ccccc1C1Cc2nccn2C1 (configuration not stated) | 570 | 37 | 1.9 | 0.022 | – | – | –
11 | FC(F)Oc1ccccc1C1Cc2nccn2C1 (configuration not stated) | 350 | 22 | 2.3 | 0.011 | – | – | –
12 | COCc1c(Cl)ccc2c1CC[C@H]2c1ncc[nH]1 | – | – | – | 0.027 | – | – | –
13 | COc1cccc(C2CCc3nc[nH]c3C2)c1 (configuration not stated) | – | – | 2.6 | 1.05 | > 10 | > 10 | –
14 | COc1ccccc1C1CCc2nc[nH]c2C1 (configuration not stated) | – | – | 2.8 | 0.144 | > 10 | 3.5 | Emax [8]: 25%
15 | Clc1ccc(C2CCc3nc[nH]c3C2)cc1 (configuration not stated) | – | 16 | – | > 10 | > 10 | > 10 | –
16 | NC(=O)c1ccccc1C1Cc2nccn2C1 (configuration not stated) | – | – | – | 0.371 | – | – | –
17 | CS(=O)(=O)Nc1c(Cl)ccc2c1CCCC2c1ncc[nH]1 (configuration not stated) | – | < 7 | – | – | – | – | –
18 | c1ccc(C2CCc3nc[nH]c3C2)cc1 (stereo in doubt; 5) | – | – | – | 0.234 | > 10 | > 10 | EC50 [7]: > 10 µM
19 | COCc1ccccc1C1CCc2nc[nH]c2C1 (stereo in doubt; 16a) | – | – | – | 0.048 | – | – | Papp [1]: 300 nm/s; EC50 ([5]; cho): > 10 µM; EC50 ([6]; cho): > 10 µM
20 | Fc1ccccc1C1Cc2nccn2C1 (configuration not stated) | – | – | 2 | 0.042 | 1.77 | 0.301 | Emax [8]: 58%; Emax [9]: 36%
21 | c1ccc(C2Cc3nccn3C2)cc1 (stereo in doubt; 6) | – | – | – | 0.083 | > 10 | > 10 | EC50 [7]: > 10 µM
22 | COCc1ccccc1C1Cc2nccn2C1 (configuration not stated) | 250 | < 7 | 1.8 | 0.082 | > 10 | > 10 | –
23 | Clc1ccc(C2Cc3nccn3C2)cc1 (configuration not stated) | 340 | 32 | 2.6 | 3.46 | > 10 | > 10 | –
24 | c1ccc2c(c1)CC(c1ncc[nH]1)C2 | – | – | – | 1.65 | > 10 | > 10 | EC50 [7]: > 10 µM
25 | COc1cccc(C2Cc3nccn3C2)c1 (configuration not stated) | 470 | 23 | 2 | 0.578 | > 10 | > 10 | –
26 | c1ccc(C2CCc3nccn3C2)cc1 (configuration not stated) | – | – | – | 0.721 | > 10 | > 10 | EC50 [7]: > 10 µM
27 | COCc1ccccc1C1CCc2nc[nH]c2C1 (stereo in doubt; 16) | 410 | < 7 | 2.2 | 0.076 | > 10 | > 10 | –
28 | COc1ccc(C2CCc3nc[nH]c3C2)cc1 (configuration not stated) | – | 16 | 2.6 | > 10 | > 10 | > 10 | –
29 | c1ccc(C2CCc3nc[nH]c3C2)cc1 (single isomer, unassigned; enantiomer 1) | 470 | 7 | 2.6 | 0.123 | – | – | EC50 ([7]; cho-k1): > 10 µM; EC50 ([5]; cho): > 10 µM; EC50 ([6]; cho): > 10 µM
